The target of one experiment is T1, wildtype HIV-1 protease (Human immunodeficiency virus type 1 group M subtype B, UniProt P04585).
T1 construct: the wildtype HIV-1 protease (which was expressed in Escherichia coli); made in house; host or cells: Escherichia coli
Nature of the experiment: Assay for inhibition of microbial expressed HIV protease (Pepcleav). The experiment is classed as biochemical. The settings on record: wild type HIV-1 protease expressed in E. coli, peptide substrate, pH 5.5; mean of at least two independent experiments; read-out: Pepcleav. In a few lines:
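Cleavage of 400 μM peptide substrate Val-Ser-Gln-Asn-(βnaphthyl)Ala-Pro-Ile-Val by 20 pM wild-type enzyme (E. coli-expressed) ran 1 h at 30 °C after 30 min inhibitor preincubation, pH 5.5 acetate buffer. Inhibition derived from product peak area by C18 LC with multiple-reaction-monitoring MS after formic acid quench.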

In another experiment the test system is HIV-1 (H9IIIB strain). Nature of the experiment: Antiviral acute infection assay in cell culture (Spread). The experiment is classed as cell-based. The settings on record: Human immunodeficiency virus 1, T-lymphoid, HIV-1 H9IIIB infection of MT-4 human T-lymphoid cells in 10% FBS; mean of at least two independent experiments. From the text: Antiviral Assays in Cell Culture (“Spread”)
Acute Infection Assay (“Spread”) data were generated using HIV-1 (H9IIIB strain) infection of MT-4 human T-lymphoid cells in 10% FBS, and according to the methods disclosed by J. P. Vacca et al, “L-735,524: An orally bioavailable human immunodeficiency virus type 1 protease inhibitor,” Proc. Natl. Acad. Sci. USA, Vol. 91, pp. 4096-4100 (April 1994).

This is an account of results in patent US9315475B2 (MERCK SHARP & DOHME CORP., priority 2011, dated 2016).

pEC50, pIC50: −log10 of the molar value. Structures can show the parent of a compound that is named as a salt.

With `O=C(C[C@@H](c1ccc(F)cc1)c1cc(F)cc(F)c1)Nc1cncc(F)c1CC[C@@H]1CNC(COC(=O)NCC(F)(F)F)CO1` (stereo in doubt) [Example 89, (3S)-3-(4-Fluorophenyl)-3-(3,5-difluorophenyl)-N-(5-fluoro-4-(2-((2R,5R)-5-(2,2,2-trifluoroethylaminocarbonyloxymethyl)morpholine-2-yl)ethyl)pyridin-3-yl)propanamide], at wildtype HIV-1 protease, the pIC50 was 8.85. For the same molecule, in the experiment with HIV-1 (H9IIIB strain), the pEC50 was 7.89. For `N[C@H](C(=O)Nc1cncc(F)c1CC[C@@H]1CNC(COC(=O)NCC(F)(F)F)CO1)[C@@H](c1ccc(F)cc1)c1cc(F)cc(F)c1` (stereo in doubt) [Example 90, (2S,3S)-2-Amino-3-(4-fluorophenyl)-3-(3,5-difluorophenyl)-N-(5-fluoro-4-(2-((2R,5R)-5-(2,2,2-trifluoroethylaminocarbonyloxymethyl)morpholine-2-yl)ethyl)pyridin-3-yl)propanamide], in that order: 8.62 and 7.31. For `COC(=O)N[C@H](C(=O)Nc1cncc(F)c1CC[C@@H]1CNC(COC(=O)NCC(F)(F)F)CO1)[C@@H](c1ccc(F)cc1)c1cc(F)cc(F)c1` (stereo in doubt) [Example 91, (2S,3S)-2-(Methoxycarbonylamino)-3-(4-fluorophenyl)-3-(3,5-difluorophenyl)-N-(5-fluoro-4-(2-((2R,5R)-5-(2,2,2-trifluoroethylaminocarbonyloxymethyl)morpholine-2-yl)ethyl)pyridin-3-yl)propanamide], at wildtype HIV-1 protease, the pIC50 was 8.52. Also, the pEC50 in the experiment with HIV-1 (H9IIIB strain) is 7.80. For `N[C@H](C(=O)Nc1cncc(F)c1CC[C@@H]1CN[C@H](COC(=O)NCC(F)(F)F)CO1)[C@H](c1ccc(F)cc1)c1cccc(F)c1` (stereo in doubt) [Example 92], in that order: 8.36 and 7.37.

For the molecule `N[C@H](C(=O)Nc1cncc(F)c1CC[C@@H]1CNC(COC(=O)NCC(F)(F)F)CO1)[C@@H](c1ccc(F)cc1)c1cccc(Cl)c1` (stereo in doubt) [Example 93, (2S,3S)-2-Amino-3-(3-chlorophenyl)-3-(4-fluorophenyl)-N-(5-fluoro-4-(2-((2R,5R)-5-(2,2,2-trifluoroethylaminocarbonyloxymethyl)morpholine-2-yl)ethyl)pyridin-3-yl)propanamide], the pIC50 at wildtype HIV-1 protease is 8.77. Further, in the experiment on HIV-1 (H9IIIB strain), the pEC50 is 7.28. As to `N[C@H](C(=O)Nc1cncc(F)c1CC[C@@H]1CN[C@H](COC(=O)NCC(F)(F)F)CO1)C(c1ccc(F)cc1)c1ccc(F)cc1` [Example 79, 4-Fluoro-β-(4-fluorophenyl)-N-(5-fluoro-4-{2-[(2R,5S)-5-({[(2,2,2-trifluoroethyl)carbamoyl]oxy}methyl)morpholin-2-yl]ethyl}pyridin-3-yl)-L-phenylalaninamide trihydrochloride], the pIC50 on wildtype HIV-1 protease was 8.44. In the experiment on HIV-1 (H9IIIB strain), the pEC50 was 7.43. For `N[C@H](C(=O)Nc1cccc(F)c1CC[C@@H]1CN[C@H](COC(=O)NCC(F)(F)F)CO1)C(c1ccc(F)cc1)c1ccc(F)cc1` [Example 80, 4-Fluoro-β-(4-fluorophenyl)-N-(3-fluoro-2-{2-[(2R,5S)-5-({[(2,2,2-trifluoroethyl)carbamoyl]oxy}methyl)morpholin-2-yl]ethyl}phenyl)-L-phenylalaninamide dihydrochloride], in that order: 8.03 and 7.35.

`N[C@H](C(=O)Nc1cccc(F)c1OC[C@@H]1CN[C@H](COC(=O)NCC(F)(F)F)CO1)C(c1ccc(F)cc1)c1ccc(F)cc1` [Example 82, ((3S,6S)-6-((2-((S)-2-amino-3,3-bis(4-fluorophenyl)propanamido)-6-fluorophenoxy)methyl)morpholin-3-yl)methyl (2,2,2-trifluoroethyl)carbamate]: the pIC50 on wildtype HIV-1 protease is 7.96. In addition, in the experiment on HIV-1 (H9IIIB strain), the pEC50 was 7.40.

Consider `N[C@H](C(=O)Nc1cncc(F)c1CC[C@@H]1CN[C@H](COC(=O)NCC(F)(F)F)CO1)[C@H](c1ccccc1)c1ccc(Cl)cc1` [Example 95, (βR)-β-(4-Chlorophenyl)-N-(5-fluoro-4-{2-[(2R,5S)-5-({[(2,2,2-trifluoroethyl)carbamoyl]oxy}methyl)morpholin-2-yl]ethyl}pyridin-3-yl)-L-phenylalaninamide], for which the pIC50 at wildtype HIV-1 protease was 9.40. The pEC50 in the experiment on HIV-1 (H9IIIB strain) is 7.80. Regarding `N[C@H](C(=O)Nc1cncc(F)c1CC[C@@H]1CN[C@H](COC(=O)NCC(F)(F)F)CO1)[C@H](c1ccc(F)cc1)c1ccc2ccccc2c1` [Example 96, (βR)-4-Fluoro-N-(5-fluoro-4-{2-[(2R,5S)-5-({[(2,2,2-trifluoroethyl)carbamoyl]oxy}methyl)morpholin-2-yl]ethyl}pyridin-3-yl)-β-naphthalen-2-yl-L-phenylalaninamide], the pIC50 at wildtype HIV-1 protease was 8.00. In the experiment on HIV-1 (H9IIIB strain), this molecule gave a pEC50 of 7.14.

Regarding `CC(C)C(NC(=O)OC[C@@H]1CO[C@H](CCc2c(F)cncc2NC(=O)CC(c2ccc(F)cc2)c2ccc(F)cc2)CN1)C(C)C` [Example 186, {(3S,6R)-6-[2-(3-{[3,3-bis(4-fluoro-phenyl)propanoyl]amino}-5-fluoropyridin-4-yl)ethyl]morpholin-3-yl}methyl [2-methyl-1-(1-methylethyl)propyl] carbamate], the pEC50 with HIV-1 (H9IIIB strain) was 7.18. Same read-out and setting: the same measure for `NC(=O)[C@H]1CCCCC1NC(=O)OC[C@@H]1CO[C@H](CCc2c(F)cncc2NC(=O)CC(c2ccc(F)cc2)c2ccc(F)cc2)CN1` (stereo partly drawn) [Example 187, {(3S,6R)-6-[2-(3-{[3,3-bis(4-fluoro-phenyl)propanoyl]amino}-5-fluoropyridin-4-yl)ethyl]morpholin-3-yl}methyl [(2S)-2-carbamoylcyclohexyl] carbamate]: 6.68. Still for that read-out and setting: the same measure for `O=C(CC(c1ccc(F)cc1)c1ccc(F)cc1)Nc1cncc(F)c1CC[C@@H]1CN[C@H](COC(=O)NCc2ccno2)CO1` [Example 188, {(3S,6R)-6-[2-(3-{[3,3-bis(4-fluoro-phenyl)propanoyl]amino}-5-fluoropyridin-4-yl)ethyl]morpholin-3-yl}methyl (isoxazol-5-ylmethyl)carbamate]: 7.30; for `N[C@H](C(=O)Nc1cccc(F)c1CC[C@@H]1CN[C@H](COC(=O)NCC(F)(F)F)CO1)[C@@H](c1ccc(F)cc1)c1ccc(OC(F)(F)F)cc1` [Example 219, (βR)-β-(4-fluorophenyl)-N-(3-fluoro-2-{2-[(2R,5S)-5-({[(2,2,2-trifluoroethyl)carbamoyl]oxy}methyl)morpholin-2-yl]ethyl}phenyl)-O-(trifluoromethyl)-L-tyrosinamide]: 6.85. For the molecule `N[C@H](C(=O)Nc1cccc(F)c1CC[C@@H]1CN[C@H](COC(=O)NCCOc2ccccc2)CO1)C(c1ccc(F)cc1)c1ccc(F)cc1` [Example 222, 4-fluoro-N-(3-fluoro-2-{2-[(2R,5S)-5-({[(2-phenoxyethyl)carbamoyl]oxy}methyl)morpholin-2-yl]ethyl}phenyl)-β-(4-fluorophenyl)-L-phenylalaninamide], the pEC50 in the experiment with HIV-1 (H9IIIB strain) is 7.28. Turning to `N[C@H](C(=O)Nc1cccc(F)c1CC[C@@H]1CN[C@H](COC(=O)NC2CCOCC2)CO1)C(c1ccc(F)cc1)c1ccc(F)cc1` [Example 223, 4-fluoro-β-(4-fluorophenyl)-N-(3-fluoro-2-{2-[(2R,5S)-5-{[(tetrahydro-2H-pyran-4-ylcarbamoyl)oxy]methyl}morpholin-2-yl]ethyl}phenyl)-L-phenylalaninamide], in the experiment with HIV-1 (H9IIIB strain), the negative-log EC50 (pEC50) is 5.85. The same measure, in the same setting: then `N[C@H](C(=O)Nc1cncc(F)c1CC[C@@H]1CN[C@H](COC(=O)NCC(F)(F)F)CO1)[C@H](c1ccc(F)cc1)c1ccc(-c2cccnc2)cc1` [Example 224, (βS)-β-(4-fluorophenyl)-N-(5-fluoro-4-{2-[(2R,5S)-5-({[(2,2,2-trifluoro-ethyl)carbamoyl]oxy}methyl)morpholin-2-yl]ethyl}pyridin-3-yl)-4-pyridin-3-yl-L-phenylalaninamide], with 6.59.

The molecule `COC(=O)N[C@H](C(=O)Nc1cncc(F)c1CC[C@@H]1CN[C@H](COC(=O)NCC(F)(F)F)CO1)[C@@H](c1ccc(F)cc1)c1cccc(Cl)c1` [Example 301, (βS)-3-chloro-β-(4-fluorophenyl)-N-(5-fluoro-4-{2-[(2R, 5S)-5-({[(2,2,2-trifluoroethyl)carbamoyl]oxy}methyl)morpholin-2-yl]ethyl}pyridin-3-yl)-Nα-(methoxycarbonyl)-L-phenylalaninamide] had a pEC50 in the experiment on HIV-1 (H9IIIB strain) of 7.60. On the same count and under the same terms, the same measure for `COC(=O)N[C@H](C(=O)Nc1cncc(F)c1CC[C@@H]1CN[C@H](COC(=O)NCC(F)(F)F)CO1)[C@@H](c1ccc(F)cc1)c1cccc(F)c1F` [Example 302, (βS)-2,3-difluoro-β-(4-fluorophenyl)-N-(5-fluoro-4-{2-[(2R,5S)-5-({[(2,2,2-trifluoroethyl)carbamoyl]oxy}methyl)morpholin-2-yl]ethyl}pyridin-3-yl)-Nα-(methoxy-carbonyl)-L-phenylalaninamide]: 7.82. Same read-out and setting: the same measure for `COC(=O)N[C@H](C(=O)Nc1cccc(F)c1CC[C@@H]1CN[C@H](COC(=O)NCC(F)(F)F)CO1)[C@@H](c1ccc(F)cc1)c1ccc(OC(F)(F)F)cc1` [Example 304, (βR)-β-(4-fluorophenyl)-N-(3-fluoro-2-{2-[(2R,5S)-5-({[(2,2,2-trifluoroethyl)carbamoyl]oxy}methyl)morpholin-2-yl]ethyl}phenyl)-Nα-(methoxy-carbonyl)-O-(trifluoromethyl)-L-tyrosinamide]: 7.48.

As usually defined, the pEC50 is the negative decadic logarithm of the EC50, by convention in mol/L.
